Test results published in patent publication US7314858B2, “Retrocyclins: antiviral and antimicrobial peptides” (priority 2001, dated 2008).
“Also recorded” adds a separate entry of the source. Where a SMILES comes first, the peptide text is derived from it. Bridges are numbered along the chain shown (N, C = ends).

Experiments:
gp120 (LAV) = molecular target: T1, gp120 (LAV) (Human immunodeficiency virus type 1 group M subtype B, UniProt P03377); experiment: Surface plasmon resonance binding; set-up: species or system HIV-1
T1 construct: Glycosylated HIV-1 gp120 (LAV) envelope glycoprotein; purchased Protein Sciences Corporation, Meriden, Conn; 2003-LAV
Procedure: FIG. 20. Binding to gp120. These binding isotherms were measured by surface plasmon resonance, using a biosensor chip that contained immobilized, recombinant gp120. Various concentrations of RC-100 and RC-101 (0.05 to 0.5 μg/ml) flowed over the biosensor chip between minutes 1 to 4, to allow the “on rates” to be measured. At 4 minutes, the peptide-containing solutions were replaced by peptide-free medium, to ascertain the “off-rates.”
(§1) Surface plasmon resonance. Recombinant human soluble CD4 (full-length 45 kDa glycosylated ectodomain) was produced by ExpresSF+S. frugiperda cells in serum-free medium (Protein Sciences Corporation, Meriden, Conn.). Glycosylated HIV-1 gp120 (LAV) envelope glycoprotein (Catalog No. 2003-LAV) was purchased from the same source. Recombinant HIV-1BaL was obtained through the AIDS Research and Reference Reagent Program, Division of AIDS, National Institute of Allergy and Infectious Disease, NIH.
(§2) Surface plasmon resonance (SPR) experiments were done with a Biacore 2000 system (Biacore, Inc., Piscataway, N.J.). The running buffer (pH 7.4) contained 10 mM HEPES, 150 mM NaCl, 3 mM EDTA and 0.005% polysorbate 20. The immobilized proteins (gp120-LAV and CD4) were dissolved at 20 μg/ml in 10 mM sodium acetate, pH 5.0 and immobilized on a Biacore CM5 sensor chip using the amine coupling method. The chip was activated by mixing 400 mM EDC (N-ethyl-N-(3-dimethylaminopropyl)-carbodiimide hydrochloride) and 100 mM N-hydroxysuccinimide. An immobilization level of −6000 response units (RU) was attained for each bound protein. Residual reactive groups on the chip surface were blocked using 1.0 Methanolamine/HCl, pH 8.5.
(§3) The flow cell chip used as a control lacked immobilized protein but was otherwise treated as above. Signals were corrected for nonspecific binding by subtracting the control signal. To regenerate the chip surface, bound ligands were removed with 10 mM HCl. Data were analyzed with BIAevaluation 3.1 software. Curve fitting was done with an assumption of 1:1 binding.
We previously reported that the protection against HIV-1 afforded by retrocyclin-1 and its analogs was correlated to their binding to gp120 and CD4. In those experiments, biosensor chips containing immobilized gp120 or CD4 were perfused with a 1 μg/ml solution of the peptides, and binding was measured by surface plasmon resonance. When we compared binding by retrocyclin-1 and RC-101 in exactly the same manner, we saw very little difference between them. FIG. 20 compares the binding of lower concentrations of these peptides, ranging from 0.05 to 0.5 μg/ml, to immobilized gp120 LAV. From these binding isotherms, and from similar studies performed with biosensor chips containing immobilized gp120 BaL or CD4, the binding constants shown in Table 7 were obtained. […]

CD4 = molecular target: T2, CD4 (Homo sapiens, UniProt P01730); experiment: Surface plasmon resonance binding; settings: immobilized CD4
T2 construct: Recombinant human soluble CD4 (full-length 45 kDa glycosylated ectodomain); purchased Protein Sciences Corporation, Meriden, Conn; host or cells: ExpresSF+ S. frugiperda cells
Source text: as §1
as §2, with “An immobilization level of −6000 response units (RU) was attained for each bound protein.” left out
as §3
In those experiments, biosensor chips containing immobilized gp120 or CD4 were perfused with a 1 μg/ml solution of the peptides, and binding was measured by surface plasmon resonance. […] No binding studies were performed with gp120 preparations derived from non-B HIV-1 subtypes.

HIV-1 strain JR-CSF = experiment: HIV-1 JR-CSF infection of CD4+ PBMC, p24 antigen ELISA; format: cell-based; settings: JR-CSF (R5), peptide 10-20 μg/ml
Procedure: FIG. 5A-C. Anti-HIV-1 activity of retrocyclin. Two strains of HIV-1 and two types of human target cells were used. The IIIB strain is T-cell tropic (X4) and utilizes the CXCR4 co-receptor for entry; the JR-CSF strain is M-tropic (R5) and uses CCR5 for entry. PBMC signifies CD4^+-selected peripheral blood mononuclear cells. […] (A) Two concentrations of retrocyclin (2 μg/ml, 20 μg/ml), 20 μg/ml of the Rhesus circular defensin “RTD-1”, and 20 μg/ml of a horseshoe crab-derived peptide “T140”, reported to only prevent X4 infections, were tested in antiviral assays of against strain IIIB in H9 cells (n=2-6 per peptide; error bars indicate SEM). (B) To confirm our results with primary human cells, similar assays were performed utilizing IIIB virus and CD4^+ PBMC or (C) JR-CSF virus and CD4^+ PBMC. Peptides were not cytotoxic at indicated concentrations, measured by trypan blue exclusion. Average of duplicate experiments are reported for studies with PBMCs. Assay sensitivity=10 pg/ml.
Either HIV-1-permissive H9 cells were used as targets, or primary CD4^+ lymphocytes from HIV-1-seronegative donors generated from freshly purified peripheral blood mononuclear cells (PBMC) stimulated with a CD3-CD8 bispecific monoclonal antibody. After approximately 7 days, when 98% of these cells co-expressed CD3 and CD4, they were infected with HIV-1 with or without retrocyclin or other test peptide. These cells were maintained in RPMI containing 10% FCS supplemented with 2 mM glutamine, 100 U of penicillin/ml, 10 μg of streptomycin/ml, and 50 U of interleukin 2/ml (R10-50 media).
The p24 assay results shown in FIG. 9 are on a logarithmic scale. A horizontal reference line that passes through 100 on the ordinate scale corresponds to […] of p24 antigen. Results from 3 experiments (each performed with PBMC from a different donor) are shown.

H9 cells = experiment: Cytotoxicity by trypan blue exclusion; settings: for cytotoxicity (trypan blue exclusion): 20 μg/ml, HIV-1-infected H9 cells

With `CC[C@H](C)[C@@H]1NC(=O)CNC(=O)[C@H](CCCNC(=N)N)NC(=O)CNC(=O)[C@@H]2CSSC[C@H](NC1=O)C(=O)N[C@@H](CCCNC(=N)N)C(=O)N[C@H]1CSSC[C@H](NC(=O)[C@H](CCCNC(=N)N)NC(=O)[C@@H]3CSSC[C@H](NC(=O)[C@H]([C@@H](C)CC)NC1=O)C(=O)NCC(=O)N[C@@H](CCCNC(=N)N)C(=O)NCC(=O)N[C@@H]([C@@H](C)CC)C(=O)N3)C(=O)N[C@@H]([C@@H](C)CC)C(=O)N2` [RC-100, Retrocyclin] (cyclo(GICRCICGRGICRCICGR); disulfide 3-16, 5-14, 7-12) the koff (gp120 (LAV)) was 0.00296 s⁻¹, the kon (gp120 (LAV)) was 80300 M⁻¹ s⁻¹ and the koff (CD4) was 0.0022 s⁻¹. For the same compound, the kon (CD4) was 67700 M⁻¹ s⁻¹, the “inhibition of HIV-1 replication (p24)” value (HIV-1 strain JR-CSF) was “complete suppression; also recorded: uniformly protective” and the “average number of cells” value (H9 cells; 20 μg/ml peptide, H9, IIIB) was 1.2e+06 mL⁻¹. The “cytotoxicity (trypan blue exclusion)” value (H9 cells) was “neither 20 μg/ml retrocyclin nor RC-101 were cytotoxic”.

`CC[C@H](C)[C@@H]1NC(=O)CNC(=O)[C@H](CCCCN)NC(=O)CNC(=O)[C@@H]2CSSC[C@H](NC1=O)C(=O)N[C@@H](CCCNC(=N)N)C(=O)N[C@H]1CSSC[C@H](NC(=O)[C@H](CCCNC(=N)N)NC(=O)[C@@H]3CSSC[C@H](NC(=O)[C@H]([C@@H](C)CC)NC1=O)C(=O)NCC(=O)N[C@@H](CCCNC(=N)N)C(=O)NCC(=O)N[C@@H]([C@@H](C)CC)C(=O)N3)C(=O)N[C@@H]([C@@H](C)CC)C(=O)N2` [RC-101, R9K-Retrocyclin] showed a koff (gp120 (LAV)) of 0.00304 s⁻¹, a kon (gp120 (LAV)) of 97200 M⁻¹ s⁻¹ and a koff (CD4) of 0.00226 s⁻¹. For the same compound, the kon (CD4) was 79000 M⁻¹ s⁻¹, the “inhibition of HIV-1 replication (p24)” value (HIV-1 strain JR-CSF) was “as active as retrocyclin” and the “cytotoxicity (trypan blue exclusion)” value (H9 cells) was “neither 20 μg/ml retrocyclin nor RC-101 were cytotoxic”.
